Series [1] relates to human liver cancer Bel-7402. The experiment in a line: anticancer activity in vitro (SRB, MTT), human liver cancer Bel-7402. It counts as cell-based. The settings on record: action time about 72 h. How it is done:
(§1) Antitumor activity tests in vitro and in vivo are carried out to the parital compounds prepared from the above examples. Wherein the method of SRB, MTT is used in vitro, and the action time is about 72 h. Inhibitory effects of the compounds on the growth of mouse Conlon26 cancer are shown in Table 2, inhibitory effects of the compounds on the growth of mouse S180 sarcoma are shown in Table 3.

Series [2] deals with non-small cell lung cancer. Put plainly: anticancer activity in vitro (SRB, MTT), non-small cell lung cancer. The series is classed as cell-based. The conditions noted are these: action time about 72 h. How it is done: as §1
In series [3] the test system is lymph cancer Ramos. Put plainly: anticancer activity in vitro (SRB, MTT), lymph cancer Ramos. The settings on record: Homo sapiens, action time about 72 h. The series is classed as cell-based. How it is done:
as §1

The subject of series [4] is colon cancer HT-29. Put plainly: anticancer activity in vitro (SRB, MTT), colon cancer HT-29. It counts as cell-based. The conditions noted are these: Homo sapiens, action time about 72 h. How it is done: as §1
For series [5], the system named is mouse S180 sarcoma. The experiment in a line: inhibitory effects on the growth of mouse S180 sarcoma in vivo. The settings on record: for End body weight / Inhibition rate / Tumor removed body weight / Tumor weight / Initial body weight: S180 mice; for Initial body weight: baseline. The protocol:
as §1

Series [6] has as its system mouse Colon26 cancer. The experiment in a line: inhibitory effects on the growth of mouse Colon26 cancer in vivo. The settings on record: for End body weight / Inhibition rate / Tumor removed body weight / Tumor weight / Initial body weight: Colon26 mice; for Initial body weight: baseline. How it is done: as §1
The test system of series [7] is four different cancer cells. Put plainly: antitumor activity in vitro, summary over the four cancer cells of Table 1. It counts as cell-based. The conditions noted are these: summary of Table 1. How it is done: as §1
Compared with compound I, compound XX has better antitumor effects.

A value given as a limit tells only on which side of the number the result lay.

With `COc1cccc2c1C(=O)c1c(O)c3c(c(O)c1C2=O)C[C@@](O)(C(=O)CO)C[C@@H]3O[C@H]1C[C@H](N)[C@H](O)[C@H](C)O1` [ADR, adriamycin, reference compound], the IC50 in series [1] stood at 0.02 µM; in series [2], 0.05 µM; in series [3], 190 nM; in series [4], 0.38 µM.

Regarding `O=P1(N(CCCl)CCCl)NCCCO1` (stereo not drawn) [CTX, cyclophosphamide, reference compound], in series [5] (30 mg/kg i.p.), the End body weight is 20.31 g, the Inhibition rate is reported as 79.82%, the “Tumor removed body weight” value is 19.85 g and the Tumor weight was 0.46 g. Also, the Initial body weight in series [5] (30 mg/kg i.p.) came out at 19.65 g. For the same compound, in series [6] (30 mg/kg i.p.), the End body weight was determined as 20.33 g, the Inhibition rate amounted to 78.14%, the “Tumor removed body weight” value is 19.93 g and the Tumor weight amounted to 0.40 g. Moreover, the Initial body weight in series [6] (30 mg/kg i.p.) turned out to be 20.03 g.

With `c1cnc2ccc(Nc3nc(N4CCCC4)c4nc[nH]c4n3)cc2c1` [Compound IV], in series [7], the “antitumor activity to four different cancer cells (in words)” value is on record as “the best”. The End body weight in series [5] (100 mg/kg p.o.) is 20.77 g; in series [5] (200 mg/kg p.o.) it was 19.12 g; in series [6] (100 mg/kg p.o.) it was 19.32 g; in series [6] (150 mg/kg p.o.) it was 18.41 g. Besides, the Inhibition rate in series [5] (100 mg/kg p.o.) is 31.95%; in series [5] (200 mg/kg p.o.), 55.37%; in series [6] (100 mg/kg p.o.), 33.31%; in series [6] (150 mg/kg p.o.), 54.45%. For the same compound, the “Tumor removed body weight” value in series [5] (100 mg/kg p.o.) was determined as 19.22 g; in series [5] (200 mg/kg p.o.), 18.10 g; in series [6] (100 mg/kg p.o.) it was 18.10 g; in series [6] (150 mg/kg p.o.), 17.57 g. Besides, the Tumor weight in series [5] (100 mg/kg p.o.) amounted to 1.55 g; in series [5] (200 mg/kg p.o.), 1.02 g; in series [6] (100 mg/kg p.o.) it was 1.22 g; in series [6] (150 mg/kg p.o.), 0.83 g. Moreover, the Initial body weight in series [5] (100 mg/kg p.o.) is given as 18.99 g; in series [5] (200 mg/kg p.o.) it was 19.49 g; in series [6] (100 mg/kg p.o.), 20.09 g; in series [6] (150 mg/kg p.o.), 20.10 g. The IC50 in series [1] stood at 0.67 µM; in series [2], 2.28 µM; in series [3], 670 nM; in series [4], 0.38 µM.

Turning to `C=CCNc1nc(Nc2ccc3ncccc3c2)nc2[nH]cnc12` [Compound I], the “antitumor activity to four different cancer cells (in words)” value in series [7] is “higher antitumor activity”. Moreover, in series [5] (100 mg/kg dosage), the “inhibitory effects on mouse S180 sarcoma (in words)” value is reported as “better inhibitory effects”. The End body weight in series [5] (100 mg/kg p.o.) is on record as 18.32 g; in series [5] (200 mg/kg p.o.), 16.04 g; in series [6] (100 mg/kg p.o.) it was 18.15 g; in series [6] (150 mg/kg p.o.), 17.96 g. The Inhibition rate amounted to 68.93% in series [5] (100 mg/kg p.o.), 70.21% in series [5] (200 mg/kg p.o.), 62.25% in series [6] (100 mg/kg p.o.) and 76.52% in series [6] (150 mg/kg p.o.). Also, the “Tumor removed body weight” value is reported as 17.61 g in series [5] (100 mg/kg p.o.), 15.36 g in series [5] (200 mg/kg p.o.), 17.46 g in series [6] (100 mg/kg p.o.) and 17.26 g in series [6] (150 mg/kg p.o.). Also, the Tumor weight in series [5] (100 mg/kg p.o.) was 0.71 g; in series [5] (200 mg/kg p.o.), 0.68 g; in series [6] (100 mg/kg p.o.), 0.69 g; in series [6] (150 mg/kg p.o.) it was 0.43 g. For the same compound, the Initial body weight in series [5] (100 mg/kg p.o.) is 19.74 g; in series [5] (200 mg/kg p.o.) it was 18.97 g; in series [6] (100 mg/kg p.o.), 19.47 g; in series [6] (150 mg/kg p.o.) it was 21.10 g. For the same compound, the IC50 in series [1] turned out to be 1.58 µM; in series [2] it was 3.61 µM; in series [3] it was 5780 nM; in series [4], 8.61 µM. Also, the “inhibitory effects on mouse Colon26 cancer (in words)” value in series [6] (100 mg/kg dosage) is “better inhibitory effects”.

For the compound `CNc1nc(Nc2ccc3ncccc3c2)nc2[nH]cnc12` [Compound VII], in series [7], the “antitumor activity to four different cancer cells (in words)” value is on record as “higher antitumor activity”. Moreover, the IC50 was 0.23 µM in series [1], 6.65 µM in series [2], 1270 nM in series [3] and 4.01 µM in series [4].

On to `C=CCN(CC=C)c1nc(Nc2ccc3ncccc3c2)nc2[nH]cnc12` [Compound XIII], for which the “antitumor activity to four different cancer cells (in words)” value in series [7] is recorded as “higher antitumor activity”. Further, the 50% inhibitory concentration (IC50) in series [1] came out at 3.46 µM; in series [2] it was 1.71 µM; in series [3], 3010 nM; in series [4], 1.94 µM.

Consider `CN1CCN(c2nc(Nc3ccc4ncccc4c3)nc3[nH]cnc23)CC1` [Compound XII], for which, in series [5] (100 mg/kg p.o.), the End body weight was 22.58 g, the Inhibition rate was 28.19%, the “Tumor removed body weight” value worked out at 20.94 g and the Tumor weight stood at 1.63 g. In series [5] (100 mg/kg p.o.), this compound had an Initial body weight of 19.22 g. In series [5] (200 mg/kg p.o.), the End body weight is reported as 21.35 g, the Inhibition rate is recorded as 46.96%, the “Tumor removed body weight” value stood at 20.14 g and the Tumor weight worked out at 1.21 g. The same compound yielded an Initial body weight in series [5] (200 mg/kg p.o.) of 19.46 g. Besides, in series [6] (100 mg/kg p.o.), the End body weight is reported as 19.16 g, the Inhibition rate was determined as 35.18%, the “Tumor removed body weight” value was found to be 17.98 g and the Tumor weight came out at 1.19 g. Moreover, the Initial body weight in series [6] (100 mg/kg p.o.) was found to be 19.06 g. Further, in series [6] (150 mg/kg p.o.), the End body weight turned out to be 18.28 g, the Inhibition rate worked out at 50.16%, the “Tumor removed body weight” value turned out to be 17.36 g and the Tumor weight was 0.91 g. The compound further had an Initial body weight in series [6] (150 mg/kg p.o.) of 19.16 g.

Regarding `c1cnc2ccc(Nc3nc(N4CCCCC4)c4nc[nH]c4n3)cc2c1` [Compound XIV], the “antitumor activity to four different cancer cells (in words)” value in series [7] is reported as “higher antitumor activity”. Also, the IC50 in series [1] turned out to be 4.62 µM; in series [2], 1.33 µM; in series [3], 2930 nM; in series [4], 2.22 µM.

As to `CCN1CCN(c2nc(Nc3ccc4ncccc4c3)nc3[nH]cnc23)CC1` [Compound XV], the “antitumor activity to four different cancer cells (in words)” value in series [7] is listed as “higher antitumor activity”. Further, the IC50 in series [1] was 5.46 µM; in series [2], 3.36 µM; in series [3] it was 2870 nM; in series [4], 4.27 µM.

`COc1cc(Nc2nc(NC3CC3)c3nc[nH]c3n2)cc2cccnc12` [Compound XXIII]: the 50% inhibitory concentration (IC50) in series [1] amounted to 5.91 µM; in series [2], 13.2 µM; in series [3], 2630 nM; in series [4], 5.72 µM.

Regarding `FC(F)(F)c1cc(Nc2nc(NC3CC3)c3nc[nH]c3n2)cc2cccnc12` [Compound XXIV], the IC50 is greater than 100 µM in series [1], 11.7 µM in series [2], greater than 100000 nM in series [3] and greater than 100 µM in series [4].

Consider `c1cc(Nc2nc(NC3CC3)c3nc[nH]c3n2)ccn1` [Compound XXIX], for which the IC50 is 4.89 µM in series [1], 7.55 µM in series [2], 4140 nM in series [3] and 16.8 µM in series [4].

Take `c1cnc2ccc(Nc3nc(N4CCNCC4)c4nc[nH]c4n3)cc2c1` [Compound XXI]: in series [7], the “antitumor activity to four different cancer cells (in words)” value is “higher antitumor activity”. The IC50 in series [1] was found to be 2.33 µM; in series [2], 6.27 µM; in series [3], 2330 nM; in series [4], 2.74 µM.

Take `c1ccc(Nc2nc(NC3CC3)c3nc[nH]c3n2)nc1` [Compound XXVIII]: the concentration for half-maximal inhibition (IC50) worked out at 80.2 µM in series [1], 61.4 µM in series [2], 51900 nM in series [3] and 81.4 µM in series [4].

For the compound `Cc1cc(Nc2nc(NC3CC3)c3nc[nH]c3n2)c2ccccc2n1` [Compound XXV], the IC50 turned out to be 5.28 µM in series [1], 13.8 µM in series [2], 5280 nM in series [3] and 2.25 µM in series [4].

In the case of `O=[N+]([O-])c1ccc(Nc2nc(NC3CC3)c3nc[nH]c3n2)cc1` [Compound XXX], the IC50 was greater than 100 µM in series [1], 11.1 µM in series [2], greater than 100000 nM in series [3] and greater than 100 µM in series [4].

As to `CN(C)c1nc(Nc2ccc3ncccc3c2)nc2[nH]cnc12` [Compound XX], in series [5] (100 mg/kg p.o.), the End body weight is 16.53 g, the Inhibition rate is listed as 72.19%, the “Tumor removed body weight” value stood at 15.90 g and the Tumor weight was found to be 0.63 g. Further, the Initial body weight in series [5] (100 mg/kg p.o.) worked out at 19.96 g. In addition, in series [5] (200 mg/kg p.o.), the End body weight is given as 16.80 g, the Inhibition rate is recorded as 73.38%, the “Tumor removed body weight” value is given as 16.20 g and the Tumor weight amounted to 0.61 g. In series [5] (200 mg/kg p.o.), this compound registered an Initial body weight of 19.58 g. Further, in series [6] (100 mg/kg p.o.), the End body weight was found to be 18.74 g, the Inhibition rate amounted to 72.31%, the “Tumor removed body weight” value is 18.23 g and the Tumor weight turned out to be 0.51 g. The compound further registered an Initial body weight in series [6] (100 mg/kg p.o.) of 19.64 g. For the same compound, in series [6] (150 mg/kg p.o.), the End body weight turned out to be 18.68 g, the Inhibition rate stood at 79.47%, the “Tumor removed body weight” value was found to be 18.31 g and the Tumor weight was found to be 0.38 g. The compound also gave an Initial body weight in series [6] (150 mg/kg p.o.) of 19.90 g.

`CC(CO)Nc1nc(Nc2ccc3ncccc3c2)nc2[nH]cnc12` (stereo not drawn) [Compound X]: the IC50 in series [1] came out at 1.78 µM; in series [2], 12.5 µM; in series [3], 4960 nM; in series [4], 24.2 µM.
